Molecular target: T1, human CaMKIIδ (Homo sapiens, UniProt Q13557)
T1 construct: Full-length, glutathione-S-transferase(GST)-tagged, human CaMKIIδ was purchased from Carna Biosciences; purchased Carna Biosciences (CaMKIIδ); Wako Pure Chemical Industries (calmodulin) 02-111
Assay: In vitro CaMKII inhibitory activity (binding assay, TR-FRET)
Settings: Table 4, GST-tagged human CaMKIIδ, activity ranks
Protocol: Evaluation of In Vitro CaMKII Inhibitory Activity (Binding Assay)
In vitro CaMKIIδ inhibitory activity was evaluated by a binding assay.
Full-length, glutathione-S-transferase(GST)-tagged, human CaMKIIδ was purchased from Carna Biosciences (product #02-111, Kobe, Japan). Full-length bovine calmodulin was purchased from Wako Pure Chemical Industries (Osaka, Japan). Terbium-labeled anti-GST antibody (Tb-anti-GST Ab) was purchased from Life Technologies (Carlsbad, Calif., USA). Boron-dipyrromethene (BODIPY)-labeled probe ligand was synthesized as described below.
Time-Resolved Fluorescence Resonance Energy Transfer (TR-FRET) Assay
All assays were conducted using 384-well, white, flat-bottomed plates (product #784075, Greiner Bio-One, Frickenhausen, Germany) in kinase assay buffer, which consists of 50 mM HEPES pH 7.6, 10 mM MgCl2, 1 mM EGTA, 0.01% Brig-35, 0.1 mM DTT). The fluorescent probe ligand was added at a final concentration of 300 nM to solutions containing 0.21 nM Tb-anti-GST Ab, 1 mM CaCl2, 10 μg/mL calmodulin, and 0.5 nM GST-tagged CaMKIIδ. After shaded incubation of the protein-probe mixture on ice for 30 min, the premix was dispensed in the assay plate including test inhibitors with 4 fold dilution series of eight concentrations. After 1 hr incubation at room temperature, TR-FRET signals were measured in duplicate using an EnVision microplate reader (Perkin Elmer, Waltham, Mass., USA). The solution in each well was excited with a laser (λ=340 nm) reflected by a dichroic mirror (D400/D505 (Perkin Elmer) through an excitation filter (UV (TRF) 340, (Perkin Elmer)), and fluorescence from Tb and BODIPY were detected through two emission filters (CFP 495 (Perkin Elmer) for Tb, Emission 520 (Perkin Elmer) for BODIPY).
The percentage of inhibition of test compounds was calculated according to equation (1) Inhibition(%)=100×(μH−T)/(μH−μL) (1)
Where T is the value of the wells containing test compounds and μH and μL are the mean values of the 0% and 100% inhibition control wells, respectively. The values of the 0 and 100% controls were the signals obtained in the absence and presence of 3 μM its parent compound, respectively. The half maximal inhibitory concentration (IC50) of test compounds was calculated by fitting the data with the logistic equation using XLfit (IDBS, Guildford, UK). The IC50 was classified according to the following activity ranks.

Compound	IC50 [nM]
C[C@@H]1CN([C@H]2CC[C@H](n3cc(Nc4ncc(-c5ccc(Cl)c(O[C@@H](C)Cn6cnnn6)c5)cn4)c(OC[C@@H](C)O)n3)CC2)C[C@H](C)O1 [Example 482, (R)-1-((4-((5-(3-(((S)-1-(1H-tetrazol-1-yl)propan-2-yl)oxy)-4-chlorophenyl)pyrimidin-2-yl)amino)-1-((1r,4r)-4-((2S,6R)-2,6-dimethylmorpholino)cyclohexyl)-1H-pyrazol-3-yl)oxy)propan-2-ol]	< 10
C[C@@H]1CN([C@H]2CC[C@H](n3cc(Nc4ncc(-c5ccc(C#N)c(O[C@@H](C)Cn6cnnn6)c5)cn4)c(OCC4CCOCC4)n3)CC2)C[C@H](C)O1 [Example 483, 2-(((S)-1-(1H-tetrazol-1-yl)propan-2-yl)oxy)-4-(2-((1-((1r,4r)-4-((2S,6R)-2,6-dimethylmorpholino)cyclohexyl)-3-((tetrahydro-2H-pyran-4-yl)methoxy)-1H-pyrazol-4-yl)amino)pyrimidin-5-yl)benzonitrile]	< 10
COCCOCCCOc1nn([C@H]2CC[C@H](N3CCOCC3)CC2)cc1Nc1ncc(-c2ccc(C#N)c(O[C@@H](C)Cn3cnnn3)c2)cn1 [Example 490, 2-(((S)-1-(1H-tetrazol-1-yl)propan-2-yl)oxy)-4-(2-((3-(3-(2-methoxyethoxy)propoxy)-1-((1r,4r)-4-morpholinocyclohexyl)-1H-pyrazol-4-yl)amino)pyrimidin-5-yl)benzonitrile]	< 10
C[C@@H](Cn1cnnn1)Oc1cc(-c2cnc(Nc3cn([C@H]4CC[C@H](N5CCOCC5)CC4)nc3OCC3COC3)nc2)ccc1Cl [Example 491, 5-(3-(((S)-1-(1H-tetrazol-1-yl)propan-2-yl)oxy)-4-chlorophenyl)-N-(1-((1r,4r)-4-morpholinocyclohexyl)-3-(oxetan-3-ylmethoxy)-1H-pyrazol-4-yl)pyrimidin-2-amine]	< 10
C[C@@H](Cn1cnnn1)Oc1cc(-c2cnc(Nc3cn([C@H]4CC[C@H](N5CCOCC5)CC4)nc3OCC3COC3)nc2)ccc1C#N [Example 492, 2-(((S)-1-(1H-tetrazol-1-yl)propan-2-yl)oxy)-4-(2-((1-((1r,4r)-4-morpholinocyclohexyl)-3-(oxetan-3-ylmethoxy)-1H-pyrazol-4-yl)amino)pyrimidin-5-yl)benzonitrile]	< 10
C[C@@H](Cn1cnnn1)Oc1cc(-c2cnc(Nc3cn([C@H]4CC[C@H](N5CCOCC5)CC4)nc3OCCCC#N)nc2)ccc1Cl [Example 493, 4-((4-((5-(3-(((S)-1-(1H-tetrazol-1-yl)propan-2-yl)oxy)-4-chlorophenyl)pyrimidin-2-yl)amino)-1-((1r,4r)-4-morpholinocyclohexyl)-1H-pyrazol-3-yl)oxy)butanenitrile]	< 10
C[C@@H](Cn1cnnn1)Oc1cc(-c2cnc(Nc3cn([C@H]4CC[C@H](N5CCOCC5)CC4)nc3OCCCC#N)nc2)ccc1C#N [Example 494, 2-(((S)-1-(1H-tetrazol-1-yl)propan-2-yl)oxy)-4-(2-((3-(3-cyanopropoxy)-1-((1r,4r)-4-morpholinocyclohexyl)-1H-pyrazol-4-yl)amino)pyrimidin-5-yl)benzonitrile]	< 10
C[C@@H](Cn1cnnn1)Oc1cc(-c2cnc(Nc3cn([C@H]4CC[C@H](N5CCOCC5)CC4)nc3OCCC(C)(C)O)nc2)ccc1C#N [Example 495, 2-(((S)-1-(1H-tetrazol-1-yl)propan-2-yl)oxy)-4-(2-((3-(3-hydroxy-3-methylbutoxy)-1-((1r,4r)-4-morpholinocyclohexyl)-1H-pyrazol-4-yl)amino)pyrimidin-5-yl)benzonitrile]	< 10
COC(C)(C)CCOc1nn([C@H]2CC[C@H](N3CCOCC3)CC2)cc1Nc1ncc(-c2ccc(C#N)c(O[C@@H](C)Cn3cnnn3)c2)cn1 [Example 496, 2-(((S)-1-(1H-tetrazol-1-yl)propan-2-yl)oxy)-4-(2-((3-(3-methoxy-3-methylbutoxy)-1-((1r,4r)-4-morpholinocyclohexyl)-1H-pyrazol-4-yl)amino)pyrimidin-5-yl)benzonitrile]	< 10
C[C@@H](Cn1cnnn1)Oc1cc(-c2cnc(Nc3cn([C@H]4CC[C@H](N5CCOCC5)CC4)nc3OCC3CCOCC3)nc2)ccc1Cl [Example 497, 5-(3-(((S)-1-(1H-tetrazol-1-yl)propan-2-yl)oxy)-4-chlorophenyl)-N-(1-((1r,4r)-4-morpholinocyclohexyl)-3-((tetrahydro-2H-pyran-4-yl)methoxy)-1H-pyrazol-4-yl)pyrimidin-2-amine]	< 10
C[C@@H](Cn1cnnn1)Oc1cc(-c2cnc(Nc3cn([C@H]4CC[C@H](N5CCOCC5)CC4)nc3OCC3CCOC3)nc2)ccc1Cl (stereo partly drawn) [Example 498, 5-(3-(((S)-1-(1H-tetrazol-1-yl)propan-2-yl)oxy)-4-chlorophenyl)-N-(1-((1r,4r)-4-morpholinocyclohexyl)-3-((tetrahydrofuran-3-yl)methoxy)-1H-pyrazol-4-yl)pyrimidin-2-amine]	< 10
C[C@@H](Cn1cnnn1)Oc1cc(-c2cnc(Nc3cn([C@H]4CC[C@H](N5CCOCC5)CC4)nc3OCC3CCCOC3)nc2)ccc1Cl (stereo partly drawn) [Example 499, 5-(3-(((S)-1-(1H-tetrazol-1-yl)propan-2-yl)oxy)-4-chlorophenyl)-N-(1-((1r,4r)-4-morpholinocyclohexyl)-3-((tetrahydro-2H-pyran-3-yl)methoxy)-1H-pyrazol-4-yl)pyrimidin-2-amine]	< 10
C[C@@H](Cn1cnnn1)Oc1cc(-c2cnc(Nc3cn([C@H]4CC[C@H](N5CCOCC5)CC4)nc3OCCC(C)(C)O)nc2)ccc1Cl [Example 500, 4-((4-((5-(3-(((S)-1-(1H-tetrazol-1-yl)propan-2-yl)oxy)-4-chlorophenyl)pyrimidin-2-yl)amino)-1-((1r,4r)-4-morpholinocyclohexyl)-1H-pyrazol-3-yl)oxy)-2-methylbutan-2-ol]	< 10
C[C@@H](Cn1cnnn1)Oc1cc(-c2cnc(Nc3cn([C@H]4CC[C@H](N5CCOCC5)CC4)nc3OCc3cncs3)nc2)ccc1Cl [Example 501, 5-(3-(((S)-1-(1H-tetrazol-1-yl)propan-2-yl)oxy)-4-chlorophenyl)-N-(1-((1r,4r)-4-morpholinocyclohexyl)-3-(thiazol-5-ylmethoxy)-1H-pyrazol-4-yl)pyrimidin-2-amine]	< 10
C[C@@H](Cn1cnnn1)Oc1cc(-c2cnc(Nc3cn([C@H]4CC[C@H](N5CCOCC5)CC4)nc3OCc3ccnn3C)nc2)ccc1Cl [Example 502, 5-(3-(((S)-1-(1H-tetrazol-1-yl)propan-2-yl)oxy)-4-chlorophenyl)-N-(3-((1-methyl-1H-pyrazol-5-yl)methoxy)-1-((1r,4r)-4-morpholinocyclohexyl)-1H-pyrazol-4-yl)pyrimidin-2-amine]	< 10
C[C@@H](Cn1cnnn1)Oc1cc(-c2cnc(Nc3cn([C@H]4CC[C@H](N5CCOCC5)CC4)nc3OCc3ncco3)nc2)ccc1Cl [Example 503, 5-(3-(((S)-1-(1H-tetrazol-1-yl)propan-2-yl)oxy)-4-chlorophenyl)-N-(1-((1r,4r)-4-morpholinocyclohexyl)-3-(oxazol-2-ylmethoxy)-1H-pyrazol-4-yl)pyrimidin-2-amine]	< 10
C[C@@H](Cn1cnnn1)Oc1cc(-c2cnc(Nc3cn([C@H]4CC[C@H](N5CCOCC5)CC4)nc3OCc3nccs3)nc2)ccc1Cl [Example 504, 5-(3-(((S)-1-(1H-tetrazol-1-yl)propan-2-yl)oxy)-4-chlorophenyl)-N-(1-((1r,4r)-4-morpholinocyclohexyl)-3-(thiazol-2-ylmethoxy)-1H-pyrazol-4-yl)pyrimidin-2-amine]	< 10

Source: US11130752B2, “Aminopyrimidine compound” (Cardurion Pharmaceuticals, LLC, priority 2018, dated 2021)
